This note sets out measurements from patent US12729194B2, “Compounds for the treatment of human immunodeficiency virus” (priority 2019, dated 2026).

For one assay, the system named is HIV-1 with HIV-1AD8 Env. The experiment in a line: microbe, parasite or virus in culture. It is filed as cell-based. As to conditions: Human immunodeficiency virus 1; Cf2Th-CD4/CCR5 target cells, 48 hours, luciferase; means and standard errors of four experiments; read-out: 50% inhibitory concentration (IC50), AD8.
The subject of assay [1] is HIV-1JR-FL Env on virions. The experiment in a line: Single-molecule FRET of virion Env. Particulars: saturating concentration (100 μM). Here is the method:
Single-molecule fluorescence resonance energy transfer (smFRET): Viruses with HIV-1JR-FL Env that is double-tagged at V1-Q3 and V4-A1 were prepared for smFRET imaging, as described in Munro, Science 346, 759-763 (2014). The high (40:1) ratio of wild-type Env to tagged Env ensures that, on average, only one tagged protomer is available for imaging on a single virus particle. The Q3 and A1 double-tagged viruses allowed the incorporation of Cy3B and Cy5 fluorescent labels, respectively. Thus, the relative movements of the V1 and V4 regions in one gp120 subunit of an individual Env trimer could be monitored in real time. The smFRET images were acquired on an in-house-built total internal reflection fluorescent microscope, as described in Munro. HIV-1JR-FL viruses incubated with saturating concentrations (100 μM) of AEG-II-168 or control HIV-1JR-FL viruses without compound were used for smFRET imaging. Data were analyzed with the customized MATLAB (Mathworks) program SPARTAN as described in Juette, Nat Methods 13, 341-344 (2016). FRET trajectories meeting the criteria of quality (sufficient signal:noise ratio, single dye photobleaching, anti-correlated features between donor and acceptor intensity and fluorescence lifetime) were compiled into FRET histograms. Hidden Markov modeling was used to fit the FRET histograms with the sum of three Gaussian distributions. […]

For assay [2], the system named is HIV-1 with JR-FL S375W Env. It is filed as cell-based. Particulars: Cf2Th-CD4/CCR5 target cells, 48 hours, luciferase; read-out: 50% inhibitory concentration (IC50), JR-FL S375W.
The subject of assay [3] is HIV-1 with HIV-1JR-FL Env. Put plainly: microbe, parasite or virus in culture. Format: cell-based. Particulars: Human immunodeficiency virus 1; Cf2Th-CD4/CCR5 target cells, 48 hours, luciferase; means and standard errors of four experiments; read-out: 50% inhibitory concentration (IC50), JR-FL.
Assay [4] relates to cell-surface HIV-1AD8 Env (A549-Env cells). Put plainly: Immunoprecipitation of cell-surface Env by antibody panel. Format: cell-based. Particulars: 10 μM. The method, then:
(§1) Immunoprecipitation of cell-surface Env: Doxycycline-induced A549-Env cells were washed twice with washing buffer (1×PBS+5% FBS), with or without 10 μM BMS-806 or compounds described herein. The cells were then incubated with 5 μg/ml antibody for one hour at 4° C. in the continued presence or absence of the compounds described herein. After washing four times in washing buffer, the cells were lysed in NP-40 lysis buffer (0.5% NP-40, 0.5 M NaCl, 10 mM Tris, pH 7.5) for five minutes at 4° C. with gentle agitation. Unless specifically indicated otherwise, compounds described herein were not added to the NP-40 lysis buffer. The lysates were cleared by centrifugation at 13,200×g for 20 minutes at 4° C., and the clarified supernatants were incubated with Protein A-Sepharose beads (50 μl of 25 mg/ml in PBS per sample) for one hour at room temperature. The beads were pelleted (1000 rpm×1 min) and washed three times with final wash buffer (200 mM Tris-HCl, pH 8.0, 100 mM (NH4)2SO4, 1 M NaCl and 0.1% NP-40). The beads were suspended in LDS sample buffer, boiled and analyzed by Western blotting using 1:2000 goat anti-gp120 polyclonal antibody (ThermoFisher) and 1:2000 HRP-conjugated rabbit anti-goat IgG (ThermoFisher). The transmembrane Env was analyzed by Western blot with the 4E10 anti-gp41 antibody and HRP-conjugated goat anti-human IgG (Santa Cruz).

Assay [5] concerns cell-surface HIV-1AD8 Env. The experiment in a line: Recognition of cell-surface Env by C34-Ig and CD4-Ig. Format: cell-based. The method, then:
as §1
The effect of BMS-806 on the recognition of the cell-surface HIV-1AD8 Env by CD4-Ig and C34-Ig was evaluated. CD4-Ig is a soluble CD4-immunoglobulin fusion protein, and C34-Ig contains the gp41 HR2 region fused to an immunoglobulin Fc. C34-Ig efficiently recognized the cell-surface Env only after incubation with soluble CD4 (sCD4) (FIG. 1C, left panel). BMS-806 blocked C34-Ig recognition of Env in the presence of sCD4.

Assay [6] concerns monomeric soluble HIV-1AD8 gp120. Put plainly: Antibody recognition of monomeric gp120. Format: binding. Particulars: 10 μM; CD4-Ig, CD4BS bNAbs, 17b. The method, then:
Antibody recognition of monomeric gp120: To produce gp120 monomers, a stop codon was introduced into the HIV-1AD8 env gene sequence encoding the gp120-gp4l junction. […] The supernatants were clarified by low-speed centrifugation and 0.45-μ filtration, and then used for precipitation by antibodies in the absence or presence of 10 μM BMS-806. Precipitates were Western blotted with a goat anti-gp120 polyclonal antibody (ThermoFisher) and 1:3000 HRP-conjugated rabbit anti-goat IgG antibody (ThermoFisher).

The test system of another assay is HIV-1 Env complexes. The experiment in a line: Association of gp120 with detergent-solubilized His6-tagged Env complexes (Ni-NTA precipitation, Western blot). The method, then: Association of gp120 with Env complexes: The non-covalent association of gp120 with HIV-1 Env complexes was studied using carboxy-terminally His6-tagged Envs from three different sources: 1) VLPs produced from A549-Gag/Env cells; 2) A549 cells expressing HIV-1AD8 and HIV-1CH848 Envs; and 3) HOS cells transiently expressing wild-type HIV-1JR-FL Env and wild-type and mutant HIV-1AD8 Envs. VLP and cell lysates from A549 cells were prepared in 1.5% Triton X-100. Cell lysates from HOS cells were prepared in 1.5% Cymal-5 (Anatrace). The VLP and cell lysates were clarified as described above. DMSO, a compound described herein, sCD4 or the CD4-mimetic compound, BNM-III-170 (Melillo, ACS Med Chem Letters 7, 33-334, 2016), was added to the lysate. Aliquots of the lysates were saved for Western blotting to detect the gp160, gp120 and gp41 glycoproteins in the input sample. The bulk of the lysates was incubated with nickel-nitriloacetic acid (Ni-NTA) beads (Qiagen) for 1.5 hours at 4° C. The beads were pelleted (1000 rpm for 1 minute at room temperature), washed 3 times with wash buffer with 1% Triton X-100, boiled in LDS sample buffer, and analyzed by Western blotting as described above.
(Immunoblotting shows a protein as a band on a membrane.)

Setting [7] is: HIV-1AD8 Env variant in HOS cell lysates.

For the molecule `COc1ccc(-c2ccc(CNC(=O)c3c(F)c(F)c(N=[N+]=[N-])c(F)c3F)o2)c2[nH]cc(C(=O)C(=O)N3CCN(C(=O)c4ccccc4)CC3)c12` [AEG-II-168], the values for the IC50 (in the assay with HIV-1 with HIV-1AD8 Env; in assay [2]; in assay [3]) were 2.8 nM, above 100 nM and 1.5 nM, respectively. Also, the “Virion Env conformational state by smFRET” value in assay [1] is “maintained a State-1-dominant conformation”.

Turning to `COc1ccnc2[nH]cc(C(=O)C(=O)N3CCN(C(=O)c4ccccc4)C[C@H]3C)c12` [BMS-806, reference compound], the IC50 in the assay on HIV-1 with HIV-1AD8 Env is 0.4 nM; in assay [2] it was above 100 nM; in assay [3], 1.6 nM. In assay [4] (17b, 19b, 902090, F105), the “Recognition of cell-surface Env by poorly neutralizing antibodies” value is “decreased the recognition of the uncleaved Env”. Also, the “Binding of bNAbs to mature cell-surface gp120” value in assay [4] (PG9, PG16, PGT145, PGT151, 35022) is “increased the binding of some bNAbs”. For the same molecule, in assay [5] (500 nM), the “CD4-Ig binding to the gp120 and gp160 Envs” value is reported as “still detected”. Besides, the “C34-Ig binding to Env” value in assay [5] (500 nM, with sCD4) is “inhibited almost completely”. Also, in assay [5] (10 μM), the “CD4-Ig recognition of Env” value is “inhibited CD4-Ig recognition of the gp120 glycoprotein on the mature Env, but not the uncleaved gp160 Env”. For the same molecule, in assay [6], the “Ligand binding to monomeric gp120” value is given as “mildly decreased gp120 binding”. Moreover, in the assay with HIV-1 Env complexes (10 μM added to cell lysates), the “sCD4-induced shedding of gp120 from Env complexes” value is given as “could be blocked”. The “BMS-806-induced gp120-Env association, I559F mutant” value in the assay on HIV-1 Env complexes (setting [7]) is “abrogated responsiveness to BMS-806”. In addition, in the assay with HIV-1 Env complexes (setting [7]), the “BMS-806-induced gp120-Env association, L193A mutant” value is on record as “poor responsiveness”.
